# Patent publication US20200147169A1, “COMPOSITION COMPRISING A HIGH CONCENTRATION OF ITURIN LIPOPEPTIDES” (LIPOFABRIK, priority 2017, published 2020)
# Experiment: Solubility of iturinic lipopeptide (mycosubtilin) alone or in compositions with surfactants; supernatant after centrifugation analysed by RP-HPLC
# Format: physicochemical
# Description: An iturinic lipopeptide (here mycosubtilin), having a purity (on dry matter) of between 45% and 80%, was solubilized alone in water at different concentrations and this control composition was compared to different compositions to which different surfactant compounds were added as described in the application. After 15 days of storage at 21° C., only compositions with a rheological behaviour of the fluid type and a homogeneous appearance (without flow preventing caking and/or phase shift and/or precipitation) are selected, mixed by stirring, then these compositions are centrifuged for 10 minutes at 10,000 g and the supernatant is analysed using the RP-HPLC reference method. This method makes it possible to check the solubility of the iturinic compounds that are then found in the supernatant after centrifugation.
# The solubility of iturinic lipopeptide (here mycosubtilin) alone in an aqueous solution as a function of its concentration is shown in FIG. 1. No surfactant is added to composition 1 which contains only iturinic lipopeptides.
# The measurement is made on the supernatant after a centrifugation step to eliminate insoluble substances.
substance,measurement,setting,value
mycosubtilin,solubility of mycosubtilin,"alkylthoxyglycoside (AEG 0.4%, composition 8 of FIG. 2), 15 days at room temperature",above 30 g/L
same,iturinic compound solubility,"combination of surfactin and fengycin (composition 10 of FIG. 2), compared with fengycin or surfactin alone",even higher
same,appearance / solubility beyond the maximum concentration,"mycosubtilin alone in aqueous solution, between 5 and 25 g/L (FIG. 1)",a precipitate that settles can be observed and only a small part remains soluble
same,maximum concentration at which mycosubtilin solubilizes,"mycosubtilin alone in aqueous solution, room temperature, no surfactant (FIG. 1)",2 g/L
same,maximum solubility of mycosubtilin,"non-ionic Simulsol and anionic Protéol, 10% each (composition 3 of FIG. 2), 15 days at room temperature",15.3 mg/mL
same,maximum solubility of mycosubtilin,"non-ionic compound Emulsogen (0.2%) (composition 6 of FIG. 2), 15 days at room temperature",11.6 mg/mL
same,solubility of mycosubtilin,"penthylene glycol (50%, composition 7 of FIG. 2), 15 days at room temperature",above 30 g/L
same,solubility of mycosubtilin,"presence of fengycin (10%, composition 2 of FIG. 2), 15 days at room temperature, supernatant after centrifugation",~30 mg/mL
same,solubility of mycosubtilin,"presence of surfactin (4%, composition 9 of FIG. 2), 15 days at room temperature, supernatant after centrifugation",~30 mg/mL
same,maximum solubility of mycosubtilin,"soy lecithin (4%) coupled with Xanthan gum (0.1%) (composition 4 of FIG. 2), 15 days at room temperature",1.5 mg/mL
same,maximum solubility of the iturinic compound,"surfactin (4%) and non-ionic surfactant Emulsogen (0.2%) (composition 13 of FIG. 2), 15 days at room temperature",112 mg/mL
